Data as given in patent US7211572B2 (Japan Tobacco Inc., priority 2003, dated 2007).
pIC50: −log10 of the molar value. Structures can show the parent of a compound that is named as a salt.

Target: T1, HIV integrase (Human immunodeficiency virus type 1 group M subtype B, UniProt P12497, F1332H)
T1 construct: HIV integrase full length gene; made in house; host or cells: Escherichia coli BL21(DE3), plasmid pET21a-INH
Assay: Determination of enzyme (HIV integrase) inhibitory activity
Type: biochemical
Settings: recombinant HIV integrase (F185H), strand transfer ELISA, absorbance at 450 nm
Procedure, shortened: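 Full-length integrase with F185H, expressed in E. coli and purified, was reacted for 60 min at 37 °C with compound and biotinylated donor DNA bound to streptavidin plates. Target DNA was added for 10 min, then anti-digoxigenin-peroxidase detection at A450; IC50 from % inhibition versus enzyme-free blank.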

O=c1c(-c2ccncc2)cn2ccn(Cc3ccc(F)cc3)c(=O)c2c1O [Example 341, 2-(4-fluorobenzyl)-9-hydroxy-7-(pyridin-4-yl)-2H-pyrido[1,2-a]pyrazine-1,8-dione hydrochloride] and O=c1c(-c2ccncn2)cn2ccn(Cc3ccc(F)cc3)c(=O)c2c1O [Example 347, 2-(4-fluorobenzyl)-9-hydroxy-7-(pyrimidin-4-yl)-2H-pyrido[1,2-a]pyrazine-1,8-dione] cannot be ordered by pIC50: greater than 8.00 for the first, greater than 8.00 for the second.

O=c1c(-c2ccncn2)cn2ccn(Cc3cccc(Cl)c3F)c(=O)c2c1O [Example 342, 2-(3-chloro-2-fluorobenzyl)-9-hydroxy-7-(pyrimidin-4-yl)-2H-pyrido[1,2-a]pyrazine-1,8-dione trifluoroacetate] and O=c1c(-c2ccccn2)cn2ccn(Cc3cccc(Cl)c3F)c(=O)c2c1O [Example 364, 2-(3-chloro-2-fluorobenzyl)-9-hydroxy-7-(pyridin-2-yl)-2H-pyrido[1,2-a]pyrazine-1,8-dione hydrochloride] cannot be ordered by pIC50: greater than 8.00 for the first, greater than 8.00 for the second.

Compared with Cn1ncnc1-c1cn2c(c(O)c1=O)C(=O)N(Cc1ccc(F)c(Cl)c1)CC2 [Example 343, 2-(3-chloro-4-fluorobenzyl)-9-hydroxy-7-(2-methyl-2H-1,2,4-triazol-3-yl)-3,4-dihydro-2H-pyrido[1,2-a]pyrazine-1,8-dione], O=C1c2c(O)c(=O)c(-c3cnccn3)cn2CCN1Cc1ccc(F)c(Cl)c1 [Example 348, 2-(3-chloro-4-fluorobenzyl)-9-hydroxy-7-(pyrazin-2-yl)-3,4-dihydro-2H-pyrido[1,2-a]pyrazine-1,8-dione] is lower in pIC50: greater than 8.00 for the first, 7.00 to 8.00 for the second.

CC(=O)c1cn2ccn(Cc3ccc(F)cc3)c(=O)c2c(O)c1=O [Example 344, 7-acetyl-2-(4-fluorobenzyl)-9-hydroxy-2H-pyrido [1,2-a]pyrazine-1,8-dione] and CC(C)C(=O)c1cn2ccn(Cc3ccc(F)cc3)c(=O)c2c(O)c1=O [Example 345, 2-(4-fluorobenzyl)-9-hydroxy-7-isobutyryl-2H-pyrido[1,2-a]pyrazine-1,8-dione hydrochloride] cannot be ordered by pIC50: greater than 8.00 for the first, greater than 8.00 for the second.

O=C(Nc1cn2c(c(O)c1=O)C(=O)N(Cc1cccc(Cl)c1)CC2)c1ccncc1 [Example 346, N-[2-(3-chlorobenzyl)-9-hydroxy-1,8-dioxo-1,3,4,8-tetrahydro-2H-pyrido[1,2-a]pyrazin-7-yl]isonicotinamide hydrochloride] and O=C(NCc1cccnc1)c1cn2c(c(O)c1=O)C(=O)N(Cc1cccc(Cl)c1)CC2 [Example 371, N-(pyridin-3-ylmethyl)-2-(3-chlorobenzyl)-9-hydroxy-1,8-dioxo-1,3,4,8-tetrahydro-2H-pyrido[1,2-a]pyrazine-7-carboxamide hydrochloride] fall in the same range of pIC50: 7.00 to 8.00 for the first, 7.00 to 8.00 for the second.

Compared with CC(C)C(=O)Nc1cn2c(c(O)c1=O)C(=O)N(Cc1ccc(F)c(Cl)c1)CC2 [Example 349, N-[2-(3-chloro-4-fluorobenzyl)-9-hydroxy-1,8-dioxo-1,3,4,8-tetrahydro-2H-pyrido[1,2-a]pyrazin-7-yl]isobutyramide], CS(=O)(=O)Nc1cn2c(c(O)c1=O)C(=O)N(Cc1ccc(F)c(Cl)c1)CC2 [Example 353, N-[2-(3-chloro-4-fluorobenzyl)-9-hydroxy-1,8-dioxo-1,3,4,8-tetrahydro-2H-pyrido[1,2-a]pyrazin-7-yl]methanesulfonamide] is higher in pIC50: 7.00 to 8.00 for the first, greater than 8.00 for the second.

Compared with O=C1c2c(O)c(=O)c(-c3nccs3)cn2CCN1Cc1ccc(Cl)cc1O [Example 350, 2-(4-chloro-2-hydroxybenzyl)-9-hydroxy-7-(thiazol-2-yl)-3,4-dihydro-2H-pyrido[1,2-a]pyrazine-1,8-dione hydrochloride], CC(C)Oc1cc(Cl)ccc1CN1CCn2cc(-c3nccs3)c(=O)c(O)c2C1=O [Example 358, 2-(4-chloro-2-isopropoxybenzyl)-9-hydroxy-7-(thiazol-2-yl)-3,4-dihydro-2H-pyrido[1,2-a]pyrazine-1,8-dione hydrochloride] is lower in pIC50: greater than 8.00 for the first, 7.00 to 8.00 for the second.

CC(CCN1CCn2cc(-c3nccs3)c(=O)c(O)c2C1=O)c1ccccc1 (stereo not drawn) [Example 351, 9-hydroxy-2-(3-phenylbutyl)-7-(thiazol-2-yl)-3,4-dihydro-2H-pyrido[1,2-a]pyrazine-1,8-dione hydrochloride] and O=C1c2c(O)c(=O)c(-c3nccs3)cn2CCN1Cc1ccc(OCc2ccccc2)c(Cl)c1 [Example 356, 2-(4-benzyloxy-3-chlorobenzyl)-9-hydroxy-7-(thiazol-2-yl)-3,4-dihydro-2H-pyrido[1,2-a]pyrazine-1,8-dione hydrochloride] fall in the same range of pIC50: 7.00 to 8.00 for the first, 7.00 to 8.00 for the second.

O=C(Nc1cn2c(c(O)c1=O)C(=O)N(Cc1cccc(Cl)c1F)CC2)c1cccnc1 [Example 352, N-[2-(3-chloro-2-fluorobenzyl)-9-hydroxy-1,8-dioxo-1,3,4,8-tetrahydro-2H-pyrido[1,2-a]pyrazin-7-yl)nicotinamide hydrochloride] and CNC(=O)c1cn2c(c(O)c1=O)C(=O)N(Cc1cccc(Cl)c1F)CC2 [Example 361, N-methyl-2-(3-chloro-2-fluorobenzyl)-9-hydroxy-1,8-dioxo-1,3,4,8-tetrahydro-2H-pyrido[1,2-a]pyrazine-7-carboxamide] fall in the same range of pIC50: 7.00 to 8.00 for the first, 7.00 to 8.00 for the second.

CCCOc1ccc(CN2CCn3cc(-c4nccs4)c(=O)c(O)c3C2=O)cc1Cl [Example 354, 2-(3-chloro-4-propoxybenzyl)-9-hydroxy-7-(thiazol-2-yl)-3,4-dihydro-2H-pyrido[1,2-a]pyrazine-1,8-dione hydrochloride] and CCCOc1cc(Cl)ccc1CN1CCn2cc(-c3nccs3)c(=O)c(O)c2C1=O [Example 357, 2-(4-chloro-2-propoxybenzyl)-9-hydroxy-7-(thiazol-2-yl)-3,4-dihydro-2H-pyrido[1,2-a]pyrazine-1,8-dione hydrochloride] fall in the same range of pIC50: 7.00 to 8.00 for the first, 7.00 to 8.00 for the second.

CC(C)Oc1ccc(CN2CCn3cc(-c4nccs4)c(=O)c(O)c3C2=O)cc1Cl [Example 355, 2-(3-chloro-4-isopropoxybenzyl)-9-hydroxy-7-(thiazol-2-yl)-3,4-dihydro-2H-pyrido[1,2-a]pyrazine-1,8-dione hydrochloride] and O=C(O)c1cc(F)ccc1CN1CCn2cc(-c3nccs3)c(=O)c(O)c2C1=O [Example 368, 5-fluoro-2-[9-hydroxy-1,8-dioxo-7-(thiazol-2-yl)-1,3,4,8-tetrahydro-pyrido[1,2-a]pyrazin-2-ylmethyl]benzoic acid hydrochloride] fall in the same range of pIC50: 7.00 to 8.00 for the first, 7.00 to 8.00 for the second.

First: O=C1c2c(O)c(=O)c(-c3nccs3)cn2CCN1Cc1ccc(Cl)cc1OCc1ccccc1 [Example 359, 2-(2-benzyloxy-4-chlorobenzyl)-9-hydroxy-7-(thiazol-2-yl)-3,4-dihydro-2H-pyrido[1,2-a]pyrazine-1,8-dione hydrochloride]
Second: CC(=O)Nc1cc(F)ccc1CN1CCn2cc(-c3nccs3)c(=O)c(O)c2C1=O [Example 366, N-{5-fluoro-2-[9-hydroxy-1,8-dioxo-7-(thiazol-2-yl)-1,3,4,8-tetrahydro-pyrido[1,2-a]pyrazin-2-ylmethyl]phenyl}acetamide hydrochloride]
The pIC50 of the first is higher: 7.00 to 8.00 for the first, 6.00 to 7.00 for the second. The first is the more potent here.

First: Cn1ncnc1-c1cn2ccn(Cc3ccc(F)cc3)c(=O)c2c(O)c1=O [Example 360, 2-(4-fluorobenzyl)-9-hydroxy-7-(2-methyl-2H-1,2,4-triazol-3-yl)-2H-pyrido[1,2-a]pyrazine-1,8-dione hydrochloride]
Second: O=c1c(-c2ccccn2)cn2ccn(Cc3cccc(F)c3)c(=O)c2c1O [Example 365, 2-(3-fluorobenzyl)-9-hydroxy-7-(pyridin-2-yl)-2H-pyrido[1,2-a]pyrazine-1,8-dione hydrochloride]
The pIC50 of the first is higher: greater than 8.00 for the first, 7.00 to 8.00 for the second.

CCC(C)(C)C(=O)c1cn2c(c(O)c1=O)C(=O)N(Cc1cccc(Cl)c1)CC2 [Example 362, 2-(3-chlorobenzyl)-7-(2,2-dimethylbutyryl)-9-hydroxy-3,4-dihydro-2H-pyrido[1,2-a]pyrazine-1,8-dione] and CC(C)(C)C(=O)c1cn2c(c(O)c1=O)C(=O)N(Cc1cccc(Cl)c1F)CC2 [Example 367, 2-(3-chloro-2-fluorobenzyl)-7-(2,2-dimethylpropionyl)-9-hydroxy-3,4-dihydro-2H-pyrido[1,2-a]pyrazine-1,8-dione hydrochloride] fall in the same range of pIC50: 7.00 to 8.00 for the first, 7.00 to 8.00 for the second.

First: O=C1c2c(O)c(=O)c(-c3ccccn3)cn2CCN1Cc1ccc(F)cc1 [Example 363, 2-(4-fluorobenzyl)-9-hydroxy-7-(pyridin-2-yl)-3,4-dihydro-2H-pyrido[1,2-a]pyrazine-1,8-dione hydrochloride]
Second: O=C1c2c(O)c(=O)c(-c3ccccn3)cn2CCN1Cc1ccc(Cl)c(Cl)c1 [Example 373, 2-(3,4-dichlorobenzyl)-9-hydroxy-7-(pyridin-2-yl)-3,4-dihydro-2H-pyrido[1,2-a]pyrazine-1,8-dione trifluoroacetate]
The pIC50 of the first is lower: 7.00 to 8.00 for the first, greater than 8.00 for the second.

Compared with O=c1c(-c2ccccn2)cn2ccn(Cc3ccc(F)c(F)c3)c(=O)c2c1O [Example 369, 2-(3,4-difluorobenzyl)-9-hydroxy-7-(pyridin-2-yl)-2H-pyrido[1,2-a]pyrazine-1,8-dione hydrochloride], O=C(NCc1ccccn1)c1cn2c(c(O)c1=O)C(=O)N(Cc1cccc(Cl)c1)CC2 [Example 372, N-(pyridin-2-ylmethyl)-2-(3-chlorobenzyl)-9-hydroxy-1,8-dioxo-1,3,4,8-tetrahydro-2H-pyrido[1,2-a]pyrazine-7-carboxamide hydrochloride] is lower in pIC50: greater than 8.00 for the first, 7.00 to 8.00 for the second.

CN(Cc1ccccc1)C(=O)c1cn2c(c(O)c1=O)C(=O)N(Cc1cccc(Cl)c1)CC2 [Example 370, N-benzyl-N-methyl-2-(3-chlorobenzyl)-9-hydroxy-1,8-dioxo-1,3,4,8-tetrahydro-2H-pyrido[1,2-a]pyrazine-7-carboxamide hydrochloride] was tested, and the pIC50 was greater than 8.00.
